Data reported in article PMC12195695, “Multifaceted Biological Activity of Rutin, Quercetin, and Quercetin’s Glucosides” (Molecules, 2025).
Values joined by “and” are separate entries in the source; they are usually repeats but may differ in a detail not shown here. Equal values may be shown once. Where a name gives a salt, the structure may show the parent alone. Read-outs that look alike come from different tables or passages of the source. Marks after values point to notes of the source that are not given here.

Columns and labels:
[1] = tested on: advanced glycation endproduct (AGE) formation in BSA/glucose model system; experiment: Inhibition of AGE formation, BSA/glucose model system; type: biochemical; conditions: fluorescence, linear regression, read-out: IC50 against AGE formation, BSA/Glucose Model System
Protocol: (§1) The positive control aminoguanidine and standards of rutin, quercetin, and quercetin’s glucosides were dissolved in DMSO and then in a phosphate buffer. The inhibitory activity against the formation of AGEs was analyzed in BSA/glucose and BSA/MGO model systems, as reported by Thornalley, and the fluorescent intensity was measured. The percentage of inhibition of AGEs was calculated from the obtained fluorescence of the test solution with or without inhibitors.

[2] = tested on: advanced glycation endproduct (AGE) formation in BSA/MGO model system; experiment: Inhibition of AGE formation, BSA/MGO model system; type: biochemical; conditions: for IC50: BSA/MGO, fluorescence, linear regression, read-out: IC50 against AGE formation, BSA/MGO Model System; for anti-AGE activity higher in comparison to Ru / anti-AGE activity higher in relation to AG: BSA/MGO model system
Protocol: as §1

[3] = molecular target: T1, angiotensin-converting enzymes (ACEs) from porcine kidneys (EC 3.4.15.1) (Sus scrofa, UniProt F1RRW5); experiment: biochemical
T1 construct: angiotensin-converting enzymes (ACEs) from porcine kidneys (EC 3.4.15.1); purchased Sigma (Sigma Chemical Company, Saint Louis, MO, USA); host or cells: porcine kidney
T1 sequence (F1RRW5 34-1309): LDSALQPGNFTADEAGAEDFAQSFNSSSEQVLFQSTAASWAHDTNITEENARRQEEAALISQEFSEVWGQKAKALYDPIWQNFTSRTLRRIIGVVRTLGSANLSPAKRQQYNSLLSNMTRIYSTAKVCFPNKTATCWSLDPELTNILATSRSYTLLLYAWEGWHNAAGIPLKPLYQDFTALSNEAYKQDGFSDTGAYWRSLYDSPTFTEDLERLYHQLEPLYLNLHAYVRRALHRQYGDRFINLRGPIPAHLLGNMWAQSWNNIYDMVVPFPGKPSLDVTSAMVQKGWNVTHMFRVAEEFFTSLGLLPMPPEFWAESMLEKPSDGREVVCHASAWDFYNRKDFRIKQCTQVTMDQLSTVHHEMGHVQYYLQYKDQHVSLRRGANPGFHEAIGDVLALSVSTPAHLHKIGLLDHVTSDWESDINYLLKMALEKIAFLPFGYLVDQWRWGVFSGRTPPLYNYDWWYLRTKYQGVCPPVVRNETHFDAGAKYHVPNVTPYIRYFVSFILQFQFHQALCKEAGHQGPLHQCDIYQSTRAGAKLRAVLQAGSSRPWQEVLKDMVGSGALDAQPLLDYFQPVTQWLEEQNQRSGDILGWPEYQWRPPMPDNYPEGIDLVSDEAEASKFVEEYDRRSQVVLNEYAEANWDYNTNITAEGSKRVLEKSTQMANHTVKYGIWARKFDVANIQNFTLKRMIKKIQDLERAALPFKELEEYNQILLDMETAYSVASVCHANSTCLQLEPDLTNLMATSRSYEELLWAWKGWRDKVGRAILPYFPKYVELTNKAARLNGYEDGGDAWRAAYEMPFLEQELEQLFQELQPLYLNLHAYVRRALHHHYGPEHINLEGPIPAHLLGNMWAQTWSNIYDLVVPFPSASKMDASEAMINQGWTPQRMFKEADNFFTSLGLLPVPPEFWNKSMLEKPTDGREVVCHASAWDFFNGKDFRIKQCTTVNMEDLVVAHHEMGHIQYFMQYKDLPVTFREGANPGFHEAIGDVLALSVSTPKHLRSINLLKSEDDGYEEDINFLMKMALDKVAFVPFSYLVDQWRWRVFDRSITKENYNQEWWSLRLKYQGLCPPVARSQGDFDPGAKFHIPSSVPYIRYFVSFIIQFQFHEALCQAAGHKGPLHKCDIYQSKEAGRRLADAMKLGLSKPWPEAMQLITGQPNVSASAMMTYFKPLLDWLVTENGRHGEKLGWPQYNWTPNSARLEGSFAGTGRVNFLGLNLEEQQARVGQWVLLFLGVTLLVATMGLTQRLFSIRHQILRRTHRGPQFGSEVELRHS
Protocol: Standards of rutin, quercetin, and quercetin’s glucosides were dissolved in 80% methanol. Each standard was diluted to various concentrations using deionized water to determine its ACE inhibitory activity, expressed as an IC50 value. The ACE stock solution was prepared by dissolving enzyme in glycerol at 50% with Buffer A (protein concentration approximately 150 μg/mL), whereas the working solution was prepared by the dilution of the stock solution with Buffer B to make a protein concentration of approximately 7.5 μg/mL. The substrate stock solution was prepared by dissolving the whole content (50 mg) of Abz-Gly-Phe (NO2)-Pro (Bachem) in 10.33 mL of Buffer C (concentration approximately 10 mM), while the working solution was prepared by the dilution of the substrate stock solution with Buffer C to make a final Abz-Gly-Phe (NO2)-Pro concentration of approximately 0.45 mM. […] The angiotensin-converting enzyme (ACE) inhibitory activity assay was conducted according to the method of Sentandreu and Toldra. The fluorescence generated was measured using a Tecan Infinite M1000 PRO multiscan microplate fluorometer (TK Biotech, Warsaw, Poland). To calculate the % of inhibition of ACE, the following equation was used: […] = 100 − (ΔRFUsample ∗ 100/ΔRFUnegative control) where ΔRFU = RFUat time 30 − RFUat time 0.
The IC50 value, indicating the sample concentration at a 50% inhibition of ACE activity, was determined using linear regression analysis of logarithmic plots. At least 3 replicates for each standard solution were conducted. Results were expressed as IC50 values.

[4] = Cyclic voltammetry: oxidation potential and antioxidant activity vs Trolox; type: physicochemical; conditions: vs. Ag/AgCl, 50 mM acetate-acetic buffer (pH 5.5) in 80% methanol, scan rate 100 mV s^-1, n = 6
[5] = as above; type: physicochemical; conditions: for Antioxidant power class based on first oxidation potential: classification according to Blasco et al. [51]; for Antioxidant Activity: cyclic voltammetry, area under anodic wave, 0.1 mM compound, Trolox regression, n = 6
Protocol: A galvanostat G 750 (Gamry Ins., Warminster, PA, USA) with a conventional three-electrode system was used for the cyclic voltammetric experiments, with Ru, Q, Ru, Q4′G, Q3G, and Q34′G (0.1 mM in 80% methanol) or Trolox solutions (0.1–2.5 mM) mixed with 0.2 M sodium acetate–acetic buffer (pH 4.5 in 80% methanol) at a ratio of 1:1 (v/v), as has previously been described in detail. The cyclic voltammograms were acquired in the range of −100 to 1300 mV at a scanning rate of 100 mV s^−1.

ACE = tested on: ACE; design: method as in earlier work; conditions: same fluorimetric method; ref 30 (Guerrero et al.); read-out: IC50 for ACE inhibition (literature); cited from earlier work

Compound | IC50 [1] | IC50 [2] | IC50 [3] | anti-AGE activity higher in comparison to Ru [2] | anti-AGE activity higher in relation to AG [2] | First Oxidation Potential [4] | Antioxidant power class based on first oxidation potential [5] | Antioxidant Activity [5] | IC50 ([3]; IC50 for ACE inhibition, concentration range 1.0-0.01 mM, linear regression, n = 6) | IC50 (ACE)
N=C(N)NN [AG, aminoguanidine hydrochloride, reference compound] | 432 ± 38 µM | 531 ± 28 µM |  |  |  |  |  |  |  | 
O=c1c(O[C@@H]2O[C@H](CO)[C@@H](O)[C@H](O)[C@H]2O)c(-c2ccc(O)c(O)c2)oc2cc(O)cc(O)c12 [Compound Q3G, quercetin-3-O-β-glucoside] | 47 ± 3 µM | 389 ± 22 µM | 135.2 ± 1.04 µM | 6% | 37% | 390 mV and 390 ± 4 ^d mV | intermediate potentials (compounds with intermediate potentials (0.3 V < Ep < 0.8 V)) | 2.59 ± 0.04 ^b mM Trolox |  | 
N[C@@H](CCC(=O)N[C@@H](CS)C(=O)NCC(=O)O)C(=O)O [GSH, reduced glutathione, reference compound] |  |  |  |  |  |  |  |  | 41.7 µM | 
O=c1c(O[C@@H]2O[C@H](CO)[C@@H](O)[C@H](O)[C@H]2O)c(-c2ccc(O[C@@H]3O[C@H](CO)[C@@H](O)[C@H](O)[C@H]3O)c(O)c2)oc2cc(O)cc(O)c12 [Q3,4′G, quercetin-3,4′-di-O-β-glucoside] | 89 ± 5 µM | 324 ± 19 µM | 115 ± 1.25 µM | 27% | 64% | 800 mV and 800 ± 7 ^a mV | low antioxidant power (a compound with a low antioxidant power (0.8 V < Ep < 1.3 V)) | 1.07 ± 0.05 ^d mM Trolox |  | 
O=c1c(O)c(-c2ccc(O[C@@H]3O[C@H](CO)[C@@H](O)[C@H](O)[C@H]3O)c(O)c2)oc2cc(O)cc(O)c12 [Q4′G, quercetin-4′-O-β-glucoside] | 259 ± 16 µM | 370 ± 23 µM | 143 ± 1.44 µM | 11% | 44% | 482 mV and 482 ± 3 ^b mV | intermediate potentials (compounds with intermediate potentials (0.3 V < Ep < 0.8 V)) | 1.99 ± 0.09 ^c mM Trolox |  | 
O=c1c(O)c(-c2ccc(O)c(O)c2)oc2cc(O)cc(O)c12 [Q, quercetin] | 243 ± 12 µM | 466 ± 17 µM | 59.29 ± 0.48 µM |  |  | 310 mV and 310 ± 4 ^e mV |  | 3.92 ± 0.20 ^a mM Trolox |  | 43 µM
C[C@@H]1O[C@@H](OC[C@H]2O[C@@H](Oc3c(-c4ccc(O)c(O)c4)oc4cc(O)cc(O)c4c3=O)[C@H](O)[C@@H](O)[C@@H]2O)[C@H](O)[C@H](O)[C@H]1O [Ru, quercetin-3-O-rutinoside] | 197 ± 8 µM | 413 ± 24 µM | 121 ± 1.56 µM |  |  | 410 mV and 410 ± 5 ^c mV | intermediate potentials (compounds with intermediate potentials (0.3 V < Ep < 0.8 V)) | 2.04 ± 0.07 ^c mM Trolox |  | 64 µM
